Activity calls are given as the source filed them. The calls are words filed in the database; no cut-off is given here.
What was measured:
[1] = Toxicity in NOD-SCID mouse xenografted with human Granta-519 cells assessed as red blood cells count at 5 mg/kg, po qd for 3 days and 4 days off intermittent dosing for 3 cycles co-administered with PARP inhibitor, niraparib and measured on day 21; assay type: organism-based; details: in vivo, 504 h, time 21 day
[2] = test system: Granta-519; assay: Antitumor activity against human Granta-519 cells xenografted in NOD-SCID mouse assessed as decrease in tumor volume at 10 mg/kg, po qd for 7 days; assay type: functional, organism-based; details: time 7.0 day
[3] = Toxicity in BALB/c mouse assessed as late stage erythroblasts in bone marrow at 10 mg/kg, po qd for 3 days and measured at 1 day after treatment discontinuation by flow cytometry; assay type: organism-based; details: in vivo, 72 h, time 3 day
[4] = Toxicity in BALB/c mouse assessed as decrease in proportion of reticulocytes in bone marrow at 10 mg/kg, po qd for 3 days; assay type: organism-based; details: in vivo, 72 h, time 3 day
[5] = test system: Granta-519; assay: Antitumor activity against human Granta-519 cells xenografted in NOD-SCID mouse assessed as decrease in tumor volume at 25 mg/kg, po qd for 5 days and measured at 2 days after drug treatment cessation; assay type: functional, organism-based; details: time 5.0 day
[6] = Toxicity in BALB/c mouse assessed as mature red blood cells at 10 mg/kg, po qd for 3 days; assay type: organism-based; details: in vivo, 72 h, time 3 day
[7] = target: Serine/threonine-protein kinase SMG1 (Homo sapiens) (UniProt Q96Q15); assay: Inhibition of SMG1 in human Jurkat cell lysates at 0.03 to 0.3 uM in presence of biotinylated ADP by KiNativ profiling based mass spectrometry; assay type: subcellular; details: dose 0.03-0.3 µM
[8] = Toxicity in NOD-SCID mouse xenografted with human Granta-519 cells assessed as changes in body weight at 10 mg/kg, po qd for 7 days; assay type: organism-based; details: in vivo, 168 h, time 7 day
[9] = Clearance in monkey liver microsomes at 1 uM in presence of NADPH by ESI/LC-MS/MS analysis; assay type: ADME, Macaca mulatta, Microsome; details: rhesus monkey, read-out: CLH
[10] = Toxicity in NOD-SCID mouse xenografted with human Granta-519 cells assessed as reticulocytes count at 5 mg/kg, po qd for 3 days and 4 days off intermittent dosing for 3 cycles co-administered with PARP inhibitor, niraparib from day 3 to day 6 in each cycle and measured on day 21; assay type: organism-based; details: in vivo, 504 h, time 21 day
[11] = Oral bioavailability in CD-1 mouse at 20 mg/kg formulated as suspension in 0.5% methocel and 0.02% SLS in 50 mM citrate buffer measured for 24 hrs by reverse phase liquid chromatography coupled to mass spectrometry; assay type: ADME, organism-based; details: in vivo
[12] = Toxicity in NOD-SCID mouse xenografted with human Granta-519 cells assessed as late stage erythroblasts in bone marrow at 10 mg/kg, po qd for 3 days co-administered with PARP inhibitor, niraparib and measured at 2 days after treatment cessation by flow cytometry; assay type: organism-based; details: in vivo, 72 h, time 3 day
[13] = Toxicity in NOD-SCID mouse xenografted with human Granta-519 cells assessed as early stage erythroblasts in bone marrow at 10 mg/kg, po qd for 3 days co-administered with PARP inhibitor, niraparib and measured at 4 days after treatment cessation by flow cytometry; assay type: organism-based; details: in vivo, 72 h, time 3 day
[14] = target: Phosphatidylinositol 4-phosphate 3-kinase C2 domain-containing subunit beta (Homo sapiens) (UniProt O00750); assay: Inhibition of PIK3C2B in human Jurkat cell lysates at 0.3 uM in presence of biotinylated ADP by KiNativ profiling based mass spectrometry; assay type: subcellular
[15] = Clearance in mouse liver microsomes at 1 uM in presence of NADPH by ESI/LC-MS/MS analysis; assay type: ADME, Microsome; details: read-out: CLH
[16] = Toxicity in NOD-SCID mouse xenografted with human Granta-519 cells assessed as red blood cells count at 5 mg/kg, po qd for 3 days and 4 days off intermittent dosing for 3 cycles co-administered with PARP inhibitor, niraparib from day 3 to day 6 in each cycle and measured on day 21; assay type: organism-based; details: in vivo, 504 h, time 21 day
[17] = Toxicity in NOD-SCID mouse xenografted with human Granta-519 cells assessed as late stage erythroblasts at 30 mg/kg, po qd for 3 days and measured at 2 days after treatment discontinuation by flow cytometry; assay type: organism-based; details: in vivo, 72 h, time 3 day
[18] = Oral bioavailability in Sprague-Dawley rat at 20 mg/kg formulated as suspension in 0.5% methocel and 0.02% SLS measured for 24 hrs by reverse phase liquid chromatography coupled to mass spectrometry; assay type: ADME, organism-based; details: in vivo
[19] = Toxicity in BALB/c mouse assessed as early stage erythroblasts in bone marrow at 10 mg/kg, po qd for 3 days and measured at 2 days after treatment discontinuation by flow cytometry; assay type: organism-based; details: in vivo, 72 h, time 3 day
[20] = Toxicity in NOD-SCID mouse xenografted with human Granta-519 cells assessed as reduction in late stage erythroblasts in bone marrow at 10 mg/kg, po qd for 1 day co-administered with PARP inhibitor, niraparib by flow cytometry; assay type: organism-based; details: in vivo, 24 h
[21] = Toxicity in NOD-SCID mouse xenografted with human Granta-519 cells assessed as circulating reticulocytes at 30 mg/kg, po qd for 3 days and 4 days off treatment and measured on day 14; assay type: organism-based; details: in vivo, 72 h, time 3 day
[22] = Clearance in human liver microsomes at 1 uM in presence of NADPH by ESI/LC-MS/MS analysis; assay type: ADME, Microsome; details: read-out: CLH
[23] = Oral bioavailability in Sprague-Dawley rat at 2.5 to 5 mg/kg formulated as a solution in 5% NMP:95% (10% VitE TPGS in water) measured for 24 hrs by reverse phase liquid chromatography coupled to mass spectrometry; assay type: ADME, organism-based; details: in vivo, dose 2.5-5 mg/kg
[24] = Toxicity in BALB/c mouse assessed as increase in proportion of red blood cells in bone marrow at 10 mg/kg, po qd for 3 days; assay type: organism-based; details: in vivo, 72 h, time 3 day
[25] = target: T1, Serine/threonine-protein kinase ATR (Homo sapiens, UniProt Q13535); assay: Inhibition of ATR in gemcitabine-stimulated human LoVo cells assessed as decrease in CHK1 phosphorylation at Ser345 residue; assay type: cell-based; details: lovo
Target sequence in this assay (Q13535 whole entry): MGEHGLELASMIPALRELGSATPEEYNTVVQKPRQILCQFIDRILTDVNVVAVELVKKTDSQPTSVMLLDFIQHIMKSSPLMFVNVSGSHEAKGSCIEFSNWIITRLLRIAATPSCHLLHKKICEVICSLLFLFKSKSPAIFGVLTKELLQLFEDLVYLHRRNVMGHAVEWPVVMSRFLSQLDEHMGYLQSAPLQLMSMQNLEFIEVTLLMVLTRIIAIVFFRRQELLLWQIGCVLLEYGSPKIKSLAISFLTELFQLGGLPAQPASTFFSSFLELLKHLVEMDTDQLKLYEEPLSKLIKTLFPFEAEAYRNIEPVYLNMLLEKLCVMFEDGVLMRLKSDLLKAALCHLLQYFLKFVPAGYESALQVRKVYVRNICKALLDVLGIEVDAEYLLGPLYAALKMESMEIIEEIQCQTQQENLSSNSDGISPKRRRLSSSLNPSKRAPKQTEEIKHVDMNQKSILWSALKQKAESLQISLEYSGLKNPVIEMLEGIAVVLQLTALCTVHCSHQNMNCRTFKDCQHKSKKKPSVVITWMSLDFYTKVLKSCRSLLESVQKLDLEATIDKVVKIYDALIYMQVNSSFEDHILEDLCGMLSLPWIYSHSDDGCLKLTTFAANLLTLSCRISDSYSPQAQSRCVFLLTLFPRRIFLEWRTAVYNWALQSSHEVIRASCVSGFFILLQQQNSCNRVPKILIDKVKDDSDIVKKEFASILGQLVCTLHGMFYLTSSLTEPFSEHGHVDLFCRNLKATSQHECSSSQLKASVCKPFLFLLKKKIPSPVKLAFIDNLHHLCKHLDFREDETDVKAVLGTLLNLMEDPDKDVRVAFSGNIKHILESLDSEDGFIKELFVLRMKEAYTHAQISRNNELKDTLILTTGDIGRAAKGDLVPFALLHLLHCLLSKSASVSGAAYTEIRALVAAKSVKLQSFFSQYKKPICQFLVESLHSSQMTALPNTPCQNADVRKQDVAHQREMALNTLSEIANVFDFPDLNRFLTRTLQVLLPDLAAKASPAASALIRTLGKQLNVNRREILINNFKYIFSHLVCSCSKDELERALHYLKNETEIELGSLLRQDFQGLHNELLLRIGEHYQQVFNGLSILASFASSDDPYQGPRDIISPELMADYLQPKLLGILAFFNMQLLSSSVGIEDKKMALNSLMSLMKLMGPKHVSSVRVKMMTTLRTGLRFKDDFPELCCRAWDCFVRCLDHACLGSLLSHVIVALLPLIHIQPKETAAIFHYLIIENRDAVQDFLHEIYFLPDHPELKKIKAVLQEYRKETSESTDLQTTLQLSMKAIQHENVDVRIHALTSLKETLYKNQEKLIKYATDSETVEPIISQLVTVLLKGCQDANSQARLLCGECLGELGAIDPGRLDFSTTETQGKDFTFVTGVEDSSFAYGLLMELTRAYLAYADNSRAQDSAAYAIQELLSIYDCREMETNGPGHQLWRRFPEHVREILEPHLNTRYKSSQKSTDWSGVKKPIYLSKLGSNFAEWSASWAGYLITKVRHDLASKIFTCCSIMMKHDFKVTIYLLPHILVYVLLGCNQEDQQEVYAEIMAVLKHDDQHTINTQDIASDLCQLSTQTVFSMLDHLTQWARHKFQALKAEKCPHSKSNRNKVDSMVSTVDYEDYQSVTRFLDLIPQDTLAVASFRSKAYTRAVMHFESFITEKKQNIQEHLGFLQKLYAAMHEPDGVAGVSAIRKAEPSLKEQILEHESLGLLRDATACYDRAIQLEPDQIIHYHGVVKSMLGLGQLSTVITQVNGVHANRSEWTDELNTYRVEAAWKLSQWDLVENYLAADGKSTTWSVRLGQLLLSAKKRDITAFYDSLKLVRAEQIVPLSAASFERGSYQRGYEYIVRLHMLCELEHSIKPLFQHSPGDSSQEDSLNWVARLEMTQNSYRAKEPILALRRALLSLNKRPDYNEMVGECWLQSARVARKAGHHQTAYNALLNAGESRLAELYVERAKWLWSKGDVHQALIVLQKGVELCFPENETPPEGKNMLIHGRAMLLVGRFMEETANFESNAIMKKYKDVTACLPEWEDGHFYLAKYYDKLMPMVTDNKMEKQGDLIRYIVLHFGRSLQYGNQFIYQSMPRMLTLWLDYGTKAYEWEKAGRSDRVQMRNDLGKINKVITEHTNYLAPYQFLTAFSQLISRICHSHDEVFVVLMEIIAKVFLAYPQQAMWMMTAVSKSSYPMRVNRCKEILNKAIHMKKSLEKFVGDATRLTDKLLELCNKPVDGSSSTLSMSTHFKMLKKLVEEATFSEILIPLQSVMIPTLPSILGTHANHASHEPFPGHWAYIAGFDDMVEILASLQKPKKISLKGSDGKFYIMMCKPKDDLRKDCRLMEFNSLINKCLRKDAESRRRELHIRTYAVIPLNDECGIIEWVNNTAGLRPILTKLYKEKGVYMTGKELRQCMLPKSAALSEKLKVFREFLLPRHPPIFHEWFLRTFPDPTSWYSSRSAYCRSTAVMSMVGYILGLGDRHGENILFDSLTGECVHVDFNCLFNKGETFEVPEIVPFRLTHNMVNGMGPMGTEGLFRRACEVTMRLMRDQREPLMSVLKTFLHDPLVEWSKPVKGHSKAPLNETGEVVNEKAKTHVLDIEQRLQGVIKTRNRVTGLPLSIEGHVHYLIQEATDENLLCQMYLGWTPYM

[26] = Toxicity in BALB/c mouse assessed as reduction in bone marrow cell viability at 10 mg/kg, po qd for 3 days by trypan blue exclusion assay; assay type: organism-based; details: in vivo, 72 h, time 3 day
[27] = Toxicity in BALB/c mouse assessed as red blood cells in bone marrow at 10 mg/kg, po qd for 3 days and measured at 4 days after treatment discontinuation; assay type: organism-based; details: in vivo, 72 h, time 3 day
[28] = Toxicity in BALB/c mouse assessed as megakaryocytes in bone marrow at 10 mg/kg, po qd for 3 days; assay type: organism-based; details: in vivo, 72 h, time 3 day
[29] = target: T1, Serine/threonine-protein kinase ATR; assay: Inhibition of ATR in human Jurkat cell lysates at 0.003 to 0.3 uM in presence of biotinylated ADP by KiNativ profiling based mass spectrometry; assay type: subcellular; details: dose 0.003-0.3 µM
Target sequence in this assay (Q13535 whole entry, looked up): as the sequence (Q13535 whole entry) above

[30] = Toxicity in NOD-SCID mouse xenografted with human Granta-519 cells assessed as early stage erythroblasts in bone marrow at 10 mg/kg, po qd for 3 days and measured at 4 days after treatment cessation by flow cytometry; assay type: organism-based; details: in vivo, 72 h, time 3 day
[31] = Clearance in CD-1 mouse at 1 mg/kg, iv formulated as a solution in 10% PG:18% PEG400 in water or 5% NMP:95% (10% VitE TPGS in water) measured for 24 hrs by reverse phase liquid chromatography coupled to mass spectrometry; assay type: ADME, organism-based; details: in vivo

Sequence of Phosphatidylinositol 4-phosphate 3-kinase C2 domain-containing subunit beta (Homo sapiens) (O00750 whole entry, the tested form may be a part): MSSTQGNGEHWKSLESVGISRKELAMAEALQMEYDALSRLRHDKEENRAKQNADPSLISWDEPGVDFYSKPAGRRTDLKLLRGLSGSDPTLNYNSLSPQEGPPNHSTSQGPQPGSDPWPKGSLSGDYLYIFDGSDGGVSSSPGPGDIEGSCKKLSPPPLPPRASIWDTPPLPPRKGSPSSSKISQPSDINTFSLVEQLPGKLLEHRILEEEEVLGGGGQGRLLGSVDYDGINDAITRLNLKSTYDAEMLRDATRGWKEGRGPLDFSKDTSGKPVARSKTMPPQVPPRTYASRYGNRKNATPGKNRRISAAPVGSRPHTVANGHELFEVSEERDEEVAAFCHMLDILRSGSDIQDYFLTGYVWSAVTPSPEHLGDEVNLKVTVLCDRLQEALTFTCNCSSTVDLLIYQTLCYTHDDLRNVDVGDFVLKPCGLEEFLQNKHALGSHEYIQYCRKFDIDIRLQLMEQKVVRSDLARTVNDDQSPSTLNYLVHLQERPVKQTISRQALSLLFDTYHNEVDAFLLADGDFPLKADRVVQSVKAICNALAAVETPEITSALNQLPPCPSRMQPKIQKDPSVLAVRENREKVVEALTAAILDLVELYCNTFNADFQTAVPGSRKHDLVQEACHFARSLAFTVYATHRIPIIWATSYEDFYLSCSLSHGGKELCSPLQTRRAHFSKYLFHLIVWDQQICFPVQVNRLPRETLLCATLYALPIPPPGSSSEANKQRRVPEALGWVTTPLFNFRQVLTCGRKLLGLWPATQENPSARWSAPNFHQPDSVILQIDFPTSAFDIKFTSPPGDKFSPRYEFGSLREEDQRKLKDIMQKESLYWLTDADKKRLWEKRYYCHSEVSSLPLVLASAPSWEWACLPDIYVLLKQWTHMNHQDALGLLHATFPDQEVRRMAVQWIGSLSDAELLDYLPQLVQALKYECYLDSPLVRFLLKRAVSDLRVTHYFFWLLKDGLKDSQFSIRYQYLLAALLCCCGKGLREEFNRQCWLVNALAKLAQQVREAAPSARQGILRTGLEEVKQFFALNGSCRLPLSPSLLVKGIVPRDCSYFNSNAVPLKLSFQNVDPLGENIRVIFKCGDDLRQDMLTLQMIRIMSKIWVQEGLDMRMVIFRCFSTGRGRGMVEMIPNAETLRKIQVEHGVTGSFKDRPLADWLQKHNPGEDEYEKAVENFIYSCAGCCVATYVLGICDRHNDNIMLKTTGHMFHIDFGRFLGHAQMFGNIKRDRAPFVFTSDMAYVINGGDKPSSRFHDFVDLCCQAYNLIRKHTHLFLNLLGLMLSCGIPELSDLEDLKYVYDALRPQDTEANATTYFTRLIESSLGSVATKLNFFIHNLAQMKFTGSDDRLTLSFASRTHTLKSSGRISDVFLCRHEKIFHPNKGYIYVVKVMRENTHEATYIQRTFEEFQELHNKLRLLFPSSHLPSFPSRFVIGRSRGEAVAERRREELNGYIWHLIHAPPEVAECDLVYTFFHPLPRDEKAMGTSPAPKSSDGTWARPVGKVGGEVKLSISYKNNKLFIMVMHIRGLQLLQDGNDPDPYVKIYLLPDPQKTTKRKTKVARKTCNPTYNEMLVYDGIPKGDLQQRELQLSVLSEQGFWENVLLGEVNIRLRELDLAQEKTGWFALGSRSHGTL

## C[C@@H]1COCCN1c1cc([C@]2(O)C[C@H]3CC[C@@H](C2)O3)c2cnn(-c3cc[nH]n3)c2n1 [CAMONSERTIB]
[1]
  Activity: Non-Toxic
[2]
  Activity: Active
[3]
  Activity: Non-Toxic
[4]
  Activity: Toxic
[5]
  Activity: Active
[6]
  Activity: Non-Toxic
[7]
  inhibition: Active
[8]
  Activity: Non-Toxic
[9]
  microsomal CLint at 1 µM: 26 µL/min/mg
[10]
  Activity: Non-Toxic
[11]
  bioavailability: 72%
[12]
  Activity: Non-Toxic
[13]
  Activity: Non-Toxic
[14]
  inhibition: Active
[15]
  microsomal CLint at 1 µM: 25 µL/min/mg
[16]
  Activity: Non-Toxic
[17]
  Activity: Non-Toxic
[18]
  bioavailability: 45%
[19]
  Activity: Non-Toxic
[20]
  Activity: Toxic
[21]
  Activity: Non-Toxic
[22]
  microsomal CLint at 1 µM: < 11.6 µL/min/mg
[23]
  bioavailability: 66%
[24]
  Activity: Toxic
[25]
  IC50: 0.33 nM
[26]
  Activity: Toxic
[27]
  Activity: Non-Toxic
[28]
  Activity: Non-Toxic
[29]
  inhibition: Active
[30]
  Activity: Non-Toxic
[31]
  clearance: 1.2 mL/min/kg

— ChEMBL document CHEMBL5505970 (J Med Chem, 2024)
